The text below walks through data of article PMC6374824 (International Journal of Endocrinology, 2019).

Data set [1] concerns the target T1, hIAPP (Homo sapiens, UniProt P10997).
T1 construct: hormone secreted by β-cells consisting of 37 amino acid residues; purchased ChinaPeptide Co. Ltd. (Shanghai, China); host or cells: chemical synthesis
T1 sequence (P10997 34-70 limits assumed): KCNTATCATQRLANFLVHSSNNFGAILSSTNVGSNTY
The data set is described as follows: Thioflavin T fluorescence assay, time course. The class given is biochemical. Conditions: for ThT fluorescence intensity compared to hIAPP group, significance: PBS pH 7.4, 37°C, unpaired t-test.

Data set [2] deals with T1, hIAPP. The data set is described as follows: Thioflavin T fluorescence assay, concentration dependence. The data set is classed as biochemical. The following applies: PBS, 24 hours, 37°C. Here is the method: The stock solutions were aliquoted and stored at -80°C according to the instructions.
The plates were incubated at 37°C for 0, 12, 24, and 48 hours. Finally, the fluorescence image was detected by an XDY-100 fluorescence microscope (Zhongheng, Shanghai, China). Subsequently, the fluorescence intensity values of each group were measured by a Fluoroskan Ascent FL luminescence meter (Thermo Scientific, USA) using an excitation λ of 435 nm and an emission λ of 485 nm. At each time course, the fluorescence intensity values of the control group were set as 1, while the values of test groups relative to the control group were set as fluorescence intensity (A.U.) and used for statistical analysis. Each experiment was repeated thrice.
The fluorescence images and the fluorescence intensity values of each group were collected after incubating for 24 hours. Each experiment was repeated thrice.

In data set [3] the test system is hIAPP amyloid fibrils. The data set is described as follows: Transmission electron microscopy of hIAPP amyloid fibrils. The class given is biochemical, human. The following applies: PBS, 24 hours, 37°C, 2% phosphotungstic acid stain; for hIAPP fibril formation by TEM, with added peptide: 100 μM peptide + 10 μM hIAPP. As to the method:
TEM was used to directly observe the relative density and morphological changes of hIAPP amyloid fibrils. […] A volume of 10 μL of each sample was placed on mesh copper grids (Servicebio, Wuhan, China) and was covered by a carbon-stabilized formvar film. After 3 min, excess fluid was removed, and the grids were stained with 2% phosphotungstic acid for 3 min. Samples were analyzed using a HT7700 transmission electron microscope (Hitachi, Japan).

Data set [4] deals with T1, hIAPP. The data set is described as follows: Biolayer interferometry, FLPNF immobilized. The class given is binding. The following applies: hIAPP 400 μM (method) / 100 μM (Figure 5 legend). As to the method: Experiments were performed by Shuangtian Biotech Co. Ltd. FLPNF were reconstituted in PBS (pH = 7.4) and immobilized on aminopropylsilane (APS) biosensors. […] This was followed by a 600 sec dissociation phase in dissociation buffer (50% DMSO+0.05% PBST) in PBS. A response unit represented the bonding height on the biosensor. The association and dissociation curves were analyzed and constructed by Octet K2 biolayer interferometry.
(BLI is a label-free optical method that tracks binding on a fibre tip over time.)

Data set [5] concerns INS-1 cells. The data set is described as follows: Cell proliferation assay (MTS), hIAPP cytotoxicity in INS-1 cells.
Experimental: The INS-1 cells at a density of 2 × 10^4 were plated in a 96-well plate. […] The untreated control cells received equal fresh medium. The medium of each group contained 0.2 μL DMSO, equal to 0.2% DMSO. Consequently, 10 μL MTS solution was added to each well and incubated for additional 2 hours. The optical density (OD) values were measured at 490 nm using a PowerWave XS2 microplate spectrophotometer (Thermo Scientific, USA). Each experiment was repeated thrice.
Data set [6] concerns the target T1, hIAPP. Conditions: ref [25], cited from earlier work; for inhibition of hIAPP aggregation in vitro: [26]. From the text: In the present study, a pentapeptide inhibitor Phe-Leu-Pro-Asn-Phe (FLPNF) that contains only five amino acids has been designed. […] After that, the ...
The test system of data set [7] is fibrils of hIAPP. Conditions: ref [25]; cited from earlier work. From the text: In the early research, SNNFGA and GAILSS could not completely prevent the formation of fibr ...
Data set [8] concerns islet amyloid. The following applies: ref [27]; cited from earlier work. From the text: In the present study, a pentapeptide inhibitor Phe-Leu-Pro-Asn-Phe (FLPNF) that contains only five amino acids has been designed. […] Even so, FLPNF was optimally designed and consisted of ...

Entries after “also recorded” stand apart in the source; their conditions may differ.

With Phe-Leu-Pro-Asn-Phe [FLPNF], the “ThT fluorescence intensity compared to hIAPP group, significance” value is listed as “significantly lowered” in data set [1] (100 μM FLPNF + 10 μM hIAPP, 24 h, P < 0.05, ex 435 nm, em 485 nm, repeated thrice) and “significantly lowered” in data set [1] (100 μM FLPNF + 10 μM hIAPP, 48 h, P < 0.01, ex 435 nm, em 485 nm, repeated thrice). For the same substance, the “ThT fluorescence intensity compared to hIAPP alone (luminescence meter)” value in data set [1] (100 μM FLPNF + 10 μM hIAPP, PBS pH 7.4, 20 μM ThT, 37°C, 12, 24 and 48 hours, ex 435 nm, em 485 nm, repeated thrice) was “decreased the fluorescence intensity compared to hIAPP alone”. Moreover, the “ThT fluorescence signal (fluorescence microscope)” value in data set [1] (100 μM peptide + 10 μM hIAPP, PBS pH 7.4, 20 μM ThT, 37°C, 24 and 48 hours) is “strong reduction of the fluorescence signal”. In addition, the “inhibition of hIAPP amyloid aggregation” value in data set [1] (10 : 1 molar ratio FLPNF to hIAPP, in vitro, ThT) is listed as “strongly inhibited the amyloid aggregation of hIAPP”. In data set [1] (in vitro, 48 hours), the “inhibitory effect at 48 hours” value was “still had an inhibitory effect”. For the same substance, in data set [1] (tenfold molar excess to hIAPP, PBS, 24 hours), the “inhibition of amyloid formation” value is on record as “partially inhibited amyloid formation”. Also, in data set [2] (0, 20, 50, 100, 200, 400 μM FLPNF + 10 μM hIAPP), the “ThT green fluorescence signal with increasing concentrations (fluorescence microscope)” value is “gradually decreased”. In data set [2] (0, 20, 50, 100, 200, 400 μM FLPNF + 10 μM hIAPP, repeated thrice), the “ThT fluorescence intensity with increasing concentrations (luminescence meter)” value is recorded as “gradually reduced”. The “ThT fluorescence intensity compared to 0 μM group” value in data set [2] (100, 200 and 400 μM FLPNF + 10 μM hIAPP, P < 0.05, unpaired t-test, repeated thrice) is listed as “significantly lowered”. Also, the “hIAPP fibril formation by TEM, with added peptide” value in data set [3] is “reduced the amounts of fibril formation; also recorded: not completely prevented but were reduced in density; also recorded: less numerous but appeared to be more thickened”. Moreover, the “association response (response units)” value in data set [4] (FLPNF immobilized on APS biosensor, PBS pH 7.4, association 300 sec, Octet K2) is listed as “approximately 0.02 nm”. Further, in data set [4] (biolayer interferometry, immobilized FLPNF), the “interaction between FLPNF and hIAPP” value is reported as “strong interaction”. For the same substance, in data set [4] (dissociation phase 600 sec, 50% DMSO+0.05% PBST in PBS, Octet K2), the dissociation entry was “tardily reversible; also recorded: slowly dropped to 0”. The “INS-1 cell viability compared to hIAPP group” value in data set [5] (100 μM FLPNF + 10 μM hIAPP, 24 hours, OD 490 nm, P < 0.05, unpaired t-test, repeated thrice) is “significant improvement in cell viability”. Further, the “INS-1 cell viability, FLPNF alone” value in data set [5] (FLPNF alone, no hIAPP, MTS) is “no direct effect on the viability of INS-1 cells; also recorded: no direct effect on cell viability”. Moreover, in data set [5] (hIAPP with FLPNF at 1 : 10 ratio, 24 hours, MTS), the “INS-1 cell viability compared to control group, with FLPNF + hIAPP” value was “still lower”.

As to “human islet amyloid polypeptide (KCNTATCATQRLANFLVHSSNNFGAILSSTNVGSNTY; Islet amyloid polypeptide; UniProt P10997 34-70, looked up) [hIAPP]”, the “fibril morphology of hIAPP alone by TEM” value in data set [3] (10 μM hIAPP alone) is “typical dense fibrils; also recorded: typical morphology and formation of dense aggregates”. The “INS-1 cell viability compared to control group” value in data set [5] (10 μM hIAPP alone, 24 hours, OD 490 nm, P < 0.001, unpaired t-test, repeated thrice) is “significantly decreased the cell viability”.

With GAILSS, in data set [6], the “inhibition of hIAPP aggregation in vitro” value was “can inhibit hIAPP aggregation in vitro”. Moreover, in data set [7], the “prevention of hIAPP fibril formation on TEM images” value was “could not completely prevent the formation of fibrils of hIAPP”.

As for NFGAIL [reference compound], the “ThT fluorescence intensity compared to hIAPP group (luminescence meter)” value in data set [1] (100 μM NFGAIL + 10 μM hIAPP, PBS pH 7.4, 20 μM ThT, 37°C, ex 435 nm, em 485 nm, repeated thrice) was “did not decrease”. In addition, in data set [2] (any concentration of NFGAIL (20-400 μM) + 10 μM hIAPP), the “ThT fluorescence signal compared to 0 μM group” value was “no reduction”. Besides, the “hIAPP fibril formation by TEM, with added peptide” value in data set [3] is “did not reduce or even increase the amount of the fibril formation; also recorded: No reduction of the fibrils”. The “effect on hIAPP fibril formation” value in data set [6] (residues 22–27 of hIAPP, negative control) is listed as “could enhance hIAPP fibril formation”. The “reduction of cytotoxic effects of hIAPP in INS-1 cells” value in data set [5] (100 μM NFGAIL + 10 μM hIAPP, 24 hours, MTS, OD 490 nm) is “no effect of reducing the cytotoxic effects of hIAPP”.

Regarding NFGAILPP, the “inhibition of hIAPP aggregation in vitro” value in data set [6] is “can inhibit hIAPP aggregation in vitro”.

Regarding NYGAILSS, the “inhibition of hIAPP aggregation in vitro” value in data set [6] is recorded as “can inhibit hIAPP aggregation in vitro”.

As to SNNFGA, in data set [6], the “inhibition of hIAPP aggregation in vitro” value is “can inhibit hIAPP aggregation in vitro”. Further, in data set [7], the “prevention of hIAPP fibril formation on TEM images” value is “could not completely prevent the formation of fibrils of hIAPP”.

In the case of D-ANFLVH, in data set [8], the “reduction of amyloid aggregates in vivo” value is given as “could reduce the islet amyloid accumulation in vivo; also recorded: can reduce the formation of amyloid aggregates in vivo”.
